Assay results as given in the supplement of paper PMC10307832.

Columns and labels:
Experiment in all cases: relative viability (nuclei count vs DMSO), 5 days (fraction); higher = more cells survive
[1] = compound: CCN1C(=O)C2=CC(=C(N=C2N(C1=O)C3CC3)N)C(=O)N + COc1cccc2cc(-c3nc([C@H]4CC[C@H](C(=O)O)CC4)n4ncnc(N)c34)[nH]c12 [OSI-027] (partner 0.5 µM)
In short: (§1)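 Relative viability was taken as the ratio of nuclei in treated wells to nuclei in vehicle wells. Lung cancer cell lines in 1536-well plates received compounds by pin tool one day after seeding, either one drug alone or a fixed anchor-drug dose plus five library-drug doses (not always all listed) in √10 steps. Nuclei were counted on 4× images after 5 days of treatment, and values are medians of duplicate plates.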

[2] = compound: CCN1C(=O)C2=CC(=C(N=C2N(C1=O)C3CC3)N)C(=O)N + C[C@@H](Oc1cc(-c2cnn(C3CCNCC3)c2)cnc1N)c1c(Cl)ccc(F)c1Cl [Crizotinib] (partner 1 µM)
In short: as §1

[3] = compound: CCN1C(=O)C2=CC(=C(N=C2N(C1=O)C3CC3)N)C(=O)N + N=C(N)NC(=N)NCCc1ccccc1 [Phenformin] (partner 250 µM)
In short: as §1

[4] = compound: CCN1C(=O)C2=CC(=C(N=C2N(C1=O)C3CC3)N)C(=O)N + Cc1nc(NC(=O)N2CCC[C@H]2C(N)=O)sc1-c1ccnc(C(C)(C)C(F)(F)F)c1 [Alpelisib] (partner 2 µM)
In short: as §1

[5] = compound: CCN1C(=O)C2=CC(=C(N=C2N(C1=O)C3CC3)N)C(=O)N + COc1cc2c(Oc3ccc(NC(=O)C4(C(=O)Nc5ccc(F)cc5)CC4)cc3F)ccnc2cc1OCCCN1CCOCC1 [Foretinib] (partner 0.25 µM)
In short: as §1

| Cell Line | relative viability ([1]; first compound 0.253 µM) | relative viability ([1]; first compound 0.8 µM) | relative viability ([1]; first compound 2.53 µM) | relative viability ([1]; first compound 8 µM) | relative viability ([2]; first compound 0.253 µM) | relative viability ([2]; first compound 0.8 µM) | relative viability ([2]; first compound 2.53 µM) | relative viability ([2]; first compound 8 µM) | relative viability ([3]; first compound 0.253 µM) | relative viability ([3]; first compound 0.8 µM) | relative viability ([3]; first compound 2.53 µM) | relative viability ([3]; first compound 8 µM) | relative viability ([4]; first compound 0.253 µM) | relative viability ([4]; first compound 0.8 µM) | relative viability ([4]; first compound 2.53 µM) | relative viability ([4]; first compound 8 µM) | relative viability ([5]; first compound 0.253 µM) | relative viability ([5]; first compound 0.8 µM) | relative viability ([5]; first compound 2.53 µM) | relative viability ([5]; first compound 8 µM) |
| --- | --- | --- | --- | --- | --- | --- | --- | --- | --- | --- | --- | --- | --- | --- | --- | --- | --- | --- | --- | --- |
| LXF-289 | 0.827 | 0.864 | 0.815 | 0.793 | 0.834 | 0.852 | 0.759 | 0.84 | 0.519 | 0.552 | 0.519 | 0.538 | 1.04 | 1.07 | 1.03 | 1.05 | 0.995 | 1 | 0.966 | 1 |
| NCI-H23 | 0.494 | 0.64 | 0.587 | 0.583 | 0.387 | 0.561 | 0.396 | 0.532 | 0.789 | 0.768 | 0.749 | 0.675 | 0.638 | 0.741 | 0.615 | 0.789 | 0.942 | 1.13 | 1.07 | 1.11 |
| NCI-H322M | 0.498 | 0.498 | 0.512 | 0.549 | 0.814 | 0.872 | 0.887 | 0.943 | 0.822 | 0.736 | 0.75 | 0.868 | 0.855 | 0.694 | 0.765 | 0.656 | 0.953 | 0.958 | 0.988 | 1.1 |
| NCI-H358 | 0.85 | 0.818 | 0.779 | 0.814 | 0.642 | 0.551 | 0.525 | 0.774 | 0.355 | 0.351 | 0.388 | 0.298 | 0.795 | 0.91 | 0.819 | 0.87 | 0.704 | 0.762 | 0.771 | 0.676 |
| NCI-H441 | 0.686 | 0.746 | 0.703 | 0.583 | 0.706 | 0.654 | 0.773 | 0.781 | 0.762 | 0.85 | 0.78 | 0.833 | 0.957 | 0.756 | 0.637 | 0.598 | 0.925 | 0.82 | 0.956 | 0.995 |
| NCI-H460 | 0.586 | 0.599 | 0.577 | 0.547 | 0.943 | 0.969 | 0.684 | 0.986 | 0.519 | 0.571 | 0.476 | 0.499 | 0.471 | 0.433 | 0.467 | 0.466 | 0.992 | 1.04 | 0.979 | 0.943 |
| NCI-H520 | 0.296 | 0.315 | 0.346 | 0.304 | 0.698 | 0.64 | 0.645 | 1.29 | 0.582 | 0.643 | 0.59 | 0.508 | 0.89 | 0.765 | 0.962 | 0.923 | 0.544 | 0.709 | 0.827 | 0.899 |
| NCI-H596 | 0.735 | 0.7 | 0.843 | 0.679 | 1.05 | 0.984 | 1.08 | 0.948 | 0.707 | 0.72 | 0.769 | 0.628 | 0.491 | 0.436 | 0.474 | 0.438 | 0.956 | 0.94 | 0.788 | 0.962 |
| NCI-H647 | 0.598 | 0.724 | 0.647 | 0.591 | 0.869 | 0.906 | 0.948 | 1.26 | 0.418 | 0.519 | 0.428 | 0.637 | 1.11 | 1.17 | 1.14 | 1.07 | 1.23 | 1.14 | 1.07 | 1.23 |
| NCI-H650 | 0.527 | 0.46 | 0.516 | 0.457 | 0.832 | 0.721 | 0.615 | 0.716 | 0.502 | 0.388 | 0.448 | 0.433 | 1.22 | 1.06 | 1 | 1.02 | 0.969 | 1.04 | 0.954 | 0.944 |
| NCI-H661 | 0.773 | 0.742 | 0.681 | 0.677 | 1.05 | 1.05 | 0.987 | 1.06 | 0.287 | 0.302 | 0.267 | 0.278 | 0.711 | 0.78 | 0.742 | 0.778 | 0.989 | 1.08 | 0.939 | 1.01 |
| NCI-H727 | 0.59 | 0.528 | 0.654 | 0.723 | 0.899 | 0.797 | 0.843 | 0.882 | 0.625 | 0.455 | 0.459 | 0.666 | 0.568 | 0.572 | 0.598 | 0.658 | 1.06 | 0.889 | 0.888 | 1.23 |
| NCI-H838 | 0.404 | 0.406 | 0.41 | 0.374 | 0.868 | 0.817 | 0.74 | 0.717 | 0.607 | 0.589 | 0.551 | 0.545 | 1.02 | 0.985 | 0.934 | 0.906 | 1.07 | 0.989 | 0.868 | 0.926 |
| NCI-H1355 | 0.5 | 0.464 | 0.455 | 0.376 | 1.12 | 1.05 | 1.02 | 1.1 | 0.463 | 0.473 | 0.451 | 0.436 | 0.829 | 0.949 | 0.787 | 0.853 | 0.996 | 1.01 | 0.963 | 0.937 |
| NCI-H1437 | 0.939 | 0.867 | 0.919 | 0.894 | 0.938 | 0.993 | 0.818 | 1.09 | 0.269 | 0.363 | 0.334 | 0.276 | 0.956 | 1.12 | 0.973 | 1.04 | 1.23 | 1.21 | 1.19 | 1.21 |
| NCI-H1651 | 0.643 | 0.691 | 0.734 | 0.606 | 0.892 | 0.884 | 0.858 | 0.868 | 0.297 | 0.326 | 0.328 | 0.313 | 0.86 | 0.948 | 0.875 | 0.957 | 0.921 | 0.838 | 0.656 | 0.772 |
